This is an account of results in US20250296938A1, “Compounds that Interact with the Ras Superfamily for the Treatment of Cancers, Inflammatory Diseases, Rasopathies, and Fibrotic Disease” (SHY Therapeutics, LLC, priority 2018, published 2025).

What is called inhibition is the share of the control response that was lost under treatment. Read a high inhibition as a response far below the control.

One assay concerns MAPK phosphorylation. The assay is described as follows: MAPK cell-based phosphorylation assay (ELISA or Western), PANC-1. The following applies: Homo sapiens, 10 μM. The protocol:
Cell lines: Tumor-derived pancreatic cancer cell line PANC-1 was purchased from ATCC and were and grown in DMEM-High Glucose supplemented with penicillin (100 U/mL), streptomycin (100 μg/mL), and 10% heat-inactivated FBS at 37° C. in a humidified incubator with 5% CO2.
Method: Cells were plated at 7500 cells/well density in a 96-well plate, allowed 3 hours to adhere to the plate, then starved in DMEM plus 0.5% FBS overnight. The small molecules to be tested were added to the cells in the final concentration of 10 μM in the presence of 0.3% DMSO for 6 hours incubation at 37° C. For IC50 value determination, serial dilutions of compounds were added to cells under the same conditions. Next, cells were stimulated with 1.5 ng/mL EGF for 15 minutes followed by cell fixation with 4% formaldehyde in PBS at room temperature for 20 minutes. Cell-direct ELISA determined phosphorylation level of MAPK.
Cell-direct ELISA: For each well, cells were permeabilized with 0.1% PBS-Triton X-100, quenched with 0.06% H2O2 in 0.1% PBS-Triton X-100, and probed with anti-phospho-MAPK antibodies (R&D Systems) followed by HRP-conjugated secondary antibody (Jackson Immunoresearch, West Grove, PA). Next, a 50 μM solution of the fluorescent substrate AmpliFlu Red (Sigma) was added and incubated at RT for 20 minutes. At the end of the incubation time, phosphorylation level of MAPK was determined by measuring fluorescence at 595 nm using SpectraMax M3 plate reader (Molecular Devices).
Cell lines: Human NSCLC cells NCI-H1975 and NCI-H1299, and tumor-derived pancreatic cancer cell lines Panc-1, MIA-PaCa-2, and BxPC3, were all purchased from American Type Culture Collection and grown in complete RPMI medium (BxPC3, NCI-H1975 and NCI-H1299) or DMEM-High Glucose (Panc1 and MIA-PaCa-2), supplemented with penicillin (100 U/mL), streptomycin (100 μg/mL), and 10% heat-inactivated FBS at 37° C. in a humidified incubator with 5% CO2.
(§1) Method: Cells were plated at 350000 cells/well density in a 12-well plate, allowed 3 hours to adhere to the plate, then starved in the appropriate medium in the presence of 0.5% FBS overnight. The small molecules to be tested were added to the cells in the final concentration of 10 μM in the presence of 0.3% DMSO for 6 hours incubation at 37° C. For IC50 value determination, serial dilutions of compounds were added to cells under the same conditions. Next, cells were stimulated with 1.5 ng/ml EGF for 15 minutes then cells were lysed with lysis buffer containing 1% Triton X-100, EDTA, and Halt™ Protease & Phosphatase Inhibitor Cocktail (Thermo Scientific). Protein concentration was assessed by BCA protein assay (Thermo Scientific). Phosphorylation level of MAPK was determined by western blot.
(§2) Western blot protocol: Equal amounts of protein (15-50 μg) were separated by SDS-PAGE and transferred to nitrocellulose membranes (Invitrogen by Thermo Fisher Scientific). The membrane was stained with Ponceau S Stain (Boston BioProducts) to verify uniform protein loading. Membranes were blocked with 10% milk and phosphorylation levels of MAPK were assessed by incubating overnight at 4° C. with anti-phospho-p44/42 (Thr202/Tyr204) antibody (Cell Signaling) followed by HRP-conjugated secondary antibody (Jackson Immunoresearch, West Grove, PA). Bands were incubated in Amersham ECL Prime Western Blotting Detection Reagent (GE Healthcare) and visualized using the ChemiDoc MP imaging system (Bio-Rad).
For orientation: ELISA stands for enzyme-linked immunosorbent assay.

The next assay deals with AKT phosphorylation. As to the kind of experiment: Western AKT cell-based phosphorylation assay, PANC-1. The note with it: Homo sapiens. The procedure: Human tumor-derived pancreatic cancer cell line Panc-1 was purchased from American Type Culture Collection and grown in complete DMEM-High Glucose supplemented with penicillin (100 U/mL), streptomycin (100 μg/mL), and 10% heat-inactivated FBS at 37° C. in a humidified incubator with 5% CO2.
as §1, with “C.” for “C. For IC50 value determination, serial dilutions of compounds were added to cells under the same conditions.”, “Akt” for “MAPK”
as §2, with “Akt” for “MAPK”, “anti-phospho-Akt (Ser473)” for “anti-phospho-p44/42 (Thr202/Tyr204)”

Where [1] appears, read: 6 hours, EGF stimulation, PANC-1.

`COCCc1ccc(Oc2nc(-c3ccccn3)nc(O)c2OC)cc1` [drawing 450]: the inhibition at 10 µM with MAPK phosphorylation (setting [1]) and with AKT phosphorylation (setting [1]) was 0% throughout.

Consider `COc1cccc(Oc2nc(-c3ccccn3)nc(O)c2OC)c1` [drawing 448], for which the inhibition at 10 µM with MAPK phosphorylation (setting [1]) and in the assay on AKT phosphorylation (setting [1]) was 0% each time.

Regarding `Oc1nc(-c2cn3cccnc3n2)nc2c(-c3ccccn3)csc12` [drawing 397], the inhibition at 10 µM in the assay with MAPK phosphorylation (setting [1]) and with AKT phosphorylation (setting [1]) was 0% each time.

With `CO[C@H]1CC[C@@H](Nc2nc(-c3nccn3C)nc3sc(-c4ccn(C(C)C)n4)c(C)c23)C1` [drawing 519], the inhibition at 10 µM with MAPK phosphorylation (PANC-1 (Table 4C)) is 76 to 100%; with AKT phosphorylation (PANC-1 (Table 4C)), 0%.

Consider `COc1c(O)nc(-c2ccccn2)nc1Oc1cccnc1` [drawing 447], for which the inhibition at 10 µM in the assay with MAPK phosphorylation (setting [1]) and in the assay with AKT phosphorylation (setting [1]) was 0% in each case.

For `Cc1c(-c2ccn(C)n2)sc2nc(-c3nccn3C)nc(NCCCC(=O)N(C)C)c12` [drawing 517], the inhibition at 10 µM in the assay on MAPK phosphorylation (PANC-1 (Table 4C)) and in the assay with AKT phosphorylation (PANC-1 (Table 4C)) was 0% in each case.

Consider `Cn1ccc(-c2sc3nc(-c4nccn4C)nc(NC4CCOCC4)c3c2-c2ccccc2)n1` [drawing 404], for which the inhibition at 10 µM with MAPK phosphorylation (setting [1]) and with AKT phosphorylation (setting [1]) was 1 to 25% throughout.

Turning to `COc1nc(-c2ccccn2)nc2c(-c3ccccn3)csc12` [drawing 513], the inhibition at 10 µM in the assay on MAPK phosphorylation (PANC-1 (Table 4C)) and in the assay with AKT phosphorylation (PANC-1 (Table 4C)) was 0% throughout.

`COC1CCN(C(=O)c2sc3nc(-c4nccn4C)nc(N[C@H]4C[C@@H](OC)C4)c3c2-c2ccccc2)C1` (stereo partly shown) [drawing 523]: the inhibition at 10 µM in the assay on MAPK phosphorylation (PANC-1 (Table 4C)) and in the assay with AKT phosphorylation (PANC-1 (Table 4C)) was 0% each time.

Turning to `O=C(c1nc(-c2ccccn2)nc(O)c1O)N1CCOCC1` [drawing 453], the inhibition at 10 µM in the assay with MAPK phosphorylation (setting [1]) and in the assay on AKT phosphorylation (setting [1]) was 0% in each case.

Consider `COc1cccc(-c2sc3nc(-c4nccn4C)nc(N[C@@H]4CC[C@H](OC)C4)c3c2C)c1F` [drawing 494], for which the inhibition at 10 µM was 76 to 100% with MAPK phosphorylation (PANC-1 (Table 4C)) and 0% with AKT phosphorylation (PANC-1 (Table 4C)).

On to `COC1CCN(c2nc(-c3nccn3C)nc3sc(-c4ccn(C)n4)c(-c4ccccc4)c23)C1` (stereo not shown) [drawing 403], for which the inhibition at 10 µM in the assay on MAPK phosphorylation (setting [1]) was 1 to 25%; with AKT phosphorylation (setting [1]), 0%.

In the case of `COCCCNc1nc(-c2nccn2C)nc2sc(-c3ccn(C)n3)c(-c3ccccc3)c12` [drawing 400], the inhibition at 10 µM in the assay on MAPK phosphorylation (setting [1]) is 26 to 50%; with AKT phosphorylation (setting [1]), 0%.

Take `Cc1cnc(-c2nc(O)c3scc(-c4ccccn4)c3n2)n1C` [drawing 394]: the inhibition at 10 µM in the assay with MAPK phosphorylation (setting [1]) and in the assay on AKT phosphorylation (setting [1]) was 0% each time.

With `COC1CCN(c2nc(-c3nccn3C)nc3sc(-c4cnn(C)c4)c(-c4ccccc4)c23)C1` (stereo not shown) [drawing 435], the inhibition at 10 µM in the assay on MAPK phosphorylation (setting [1]) was 1 to 25%; in the assay with AKT phosphorylation (setting [1]), 0%.

Regarding `COc1cccc(-c2sc3nc(C4=NC(C)=NC4C)nc(N[C@@H]4CC[C@H](OC)C4)c3c2C)c1F` (stereo partly shown), the inhibition at 10 µM with MAPK phosphorylation (PANC-1 (Table 4C)) is 76 to 100%; with AKT phosphorylation (PANC-1 (Table 4C)) it was 0%.

As to `COCCn1ccnc1-c1nc(O)c2scc(-c3ccccn3)c2n1` [drawing 390], the inhibition at 10 µM with MAPK phosphorylation (setting [1]) was 51 to 75%; in the assay with AKT phosphorylation (setting [1]), 0%.

As for `COCCNc1nc(-c2cn(C)cn2)nc2sc(-c3cccc(OC)c3Cl)c(-c3ccc(OC)cc3)c12` [drawing 423], the inhibition at 10 µM in the assay with MAPK phosphorylation (setting [1]) was 76 to 100%; with AKT phosphorylation (setting [1]), 0%.

As to `CO[C@H]1C[C@H](Nc2nc(-c3nccn3C)nc3sc(-c4ccn(C)n4)c(-c4ccccc4)c23)C1` [drawing 506], the inhibition at 10 µM in the assay on MAPK phosphorylation (PANC-1 (Table 4C)) and with AKT phosphorylation (PANC-1 (Table 4C)) was 76 to 100% throughout.

On to `Oc1nc(-c2nccn2Cc2ccccn2)nc2c(-c3ccccn3)csc12` [drawing 392], for which the inhibition at 10 µM was 51 to 75% in the assay on MAPK phosphorylation (setting [1]) and 0% in the assay on AKT phosphorylation (setting [1]).

`COc1c(O)nc(-c2ccccn2)nc1Nc1ccccc1` [drawing 480]: the inhibition at 10 µM with MAPK phosphorylation (PANC-1 (Table 4C)) and in the assay on AKT phosphorylation (PANC-1 (Table 4C)) was 0% each time.

As for `COC1CCN(c2nc(-c3nccn3C)nc3sc(-c4ccc(CO)cc4)c(-c4ccccc4)c23)C1` (stereo not shown) [drawing 436], the inhibition at 10 µM with MAPK phosphorylation (setting [1]) is 51 to 75%; with AKT phosphorylation (setting [1]) it was 0%.

Regarding `O=C(NC1CCCC1)c1nc(-c2ccccn2)nc(O)c1O` [drawing 457], the inhibition at 10 µM in the assay on MAPK phosphorylation (setting [1]) and in the assay on AKT phosphorylation (setting [1]) was 0% each time.

In the case of `COC1CCN(c2nc(-c3nccn3C)nc3sc(-c4cccnc4)c(-c4ccccc4)c23)C1` (stereo not shown) [drawing 429], the values for the inhibition at 10 µM in the assay on MAPK phosphorylation (setting [1]) and in the assay with AKT phosphorylation (setting [1]) were 51 to 75% and 0%, respectively.

As for `CO[C@H]1CC[C@@H](Nc2nc(-c3nccn3C)nc3sc(-c4cccc5[nH]ncc45)c(C)c23)C1`, the inhibition at 10 µM in the assay with MAPK phosphorylation (PANC-1 (Table 4C)) is 76 to 100%; in the assay on AKT phosphorylation (PANC-1 (Table 4C)), 0%.

For the compound `CO[C@H]1CC[C@@H](Nc2nc(-c3nccn3C)nc3sc(-c4ccn(C)n4)c(C)c23)C1` [drawing 515], the inhibition at 10 µM in the assay with MAPK phosphorylation (PANC-1 (Table 4C)) and in the assay with AKT phosphorylation (PANC-1 (Table 4C)) was 0% throughout.

As to `Cn1ccc(-c2sc3nc(-c4nccn4C)nc(O)c3c2-c2ccccc2)n1` [drawing 504], the inhibition at 10 µM with MAPK phosphorylation (PANC-1 (Table 4C)) and in the assay with AKT phosphorylation (PANC-1 (Table 4C)) was 0% in each case.

On to `Cc1c(-c2ccn(C)n2)sc2nc(-c3nccn3C)nc(NCCOC(=O)N(C)C)c12` [drawing 518], for which the inhibition at 10 µM in the assay on MAPK phosphorylation (PANC-1 (Table 4C)) and with AKT phosphorylation (PANC-1 (Table 4C)) was 0% in each case.

As for `COC1CCN(c2nc(-c3nccn3C)nc3sc(-c4ccccc4Cl)c(-c4cscn4)c23)C1` (stereo not shown) [drawing 415], the inhibition at 10 µM with MAPK phosphorylation (setting [1]) and in the assay on AKT phosphorylation (setting [1]) was 0% throughout.

On to `COCCn1ccnc1-c1nc(O)c2scc(-c3ccc(OCC(C)C)nc3)c2n1` [drawing 498], for which the inhibition at 10 µM in the assay with MAPK phosphorylation (PANC-1 (Table 4C)) was 76 to 100%; in the assay with AKT phosphorylation (PANC-1 (Table 4C)), 0%.

As to `COCC(C)Nc1nc(-c2nccn2C)nc2sc(-c3ccn(C)n3)c(-c3ccc(OC)cc3)c12` (stereo not shown) [drawing 412], the inhibition at 10 µM was 1 to 25% in the assay with MAPK phosphorylation (setting [1]) and 0% in the assay with AKT phosphorylation (setting [1]).

With `COCC1CN(c2nc(-c3nccn3C)nc3sc(-c4cccc(OC)c4F)c(-c4ccc(OC)cc4)c23)C1` [drawing 443], the results for the inhibition at 10 µM in the assay on MAPK phosphorylation (setting [1]) and in the assay on AKT phosphorylation (setting [1]) were 76 to 100% and 0%, respectively.

Take `CC(C)NC(=O)c1nc(-c2nccn2C)nc(O)c1O` [drawing 462]: the inhibition at 10 µM in the assay on MAPK phosphorylation (setting [1]) and in the assay on AKT phosphorylation (setting [1]) was 0% each time.

On to `COc1cccc(Cn2ccnc2-c2nc(O)c3scc(-c4ccccn4)c3n2)c1` [drawing 393], for which the inhibition at 10 µM was 51 to 75% with MAPK phosphorylation (setting [1]) and 0% in the assay on AKT phosphorylation (setting [1]).

With `CO[C@H]1C[C@@H](Nc2nc(-c3nccn3C)nc3sc(C(=O)NC(C)C)c(-c4ccccc4)c23)C1` [drawing 520], the inhibition at 10 µM with MAPK phosphorylation (PANC-1 (Table 4C)) and with AKT phosphorylation (PANC-1 (Table 4C)) was 0% throughout.
